Read-outs that look alike come from different tables or passages of the source.
Tests used:
[1] = target: T1, NMT1 enzyme (Homo sapiens, UniProt P30419); test: Inhibitory activity on NMT1 enzyme catalysis (fluorescence intensity assay); assay type: biochemical
T1 sequence (P30419 1-496): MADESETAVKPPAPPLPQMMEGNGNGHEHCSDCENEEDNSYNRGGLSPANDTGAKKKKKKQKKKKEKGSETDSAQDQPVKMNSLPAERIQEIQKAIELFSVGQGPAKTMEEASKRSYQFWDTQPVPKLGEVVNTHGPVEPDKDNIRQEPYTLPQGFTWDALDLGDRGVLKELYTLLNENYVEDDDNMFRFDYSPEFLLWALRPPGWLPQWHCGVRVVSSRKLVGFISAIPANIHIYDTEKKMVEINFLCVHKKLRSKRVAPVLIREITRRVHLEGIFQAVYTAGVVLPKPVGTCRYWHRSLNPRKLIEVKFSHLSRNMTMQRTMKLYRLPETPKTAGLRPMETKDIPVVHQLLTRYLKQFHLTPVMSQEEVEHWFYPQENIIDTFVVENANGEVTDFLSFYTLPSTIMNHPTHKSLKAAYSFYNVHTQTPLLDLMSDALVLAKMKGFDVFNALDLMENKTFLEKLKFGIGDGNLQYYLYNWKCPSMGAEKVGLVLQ
Protocol: This study evaluated the ability of the compounds of the invention to inhibit NMT1 catalytic activity in vitro. […] The final concentration of the NMT1 enzyme was 6 nM, the final concentration of CPM (Reactive thiol fluorescence probe, Invitrogen, D346) was 1 µM, the final concentration of HSPP60 SRC was 20 µM, and the final concentration of DMSO was 0.5%.
Compounds were dissolved in DMSO to obtain 10 mM stock solutions. Dose-response solutions were prepared with a top endpoint compound concentration of 3 mM, followed by three-fold serial dilutions in DMSO, totaling ten data points. […] Then, 2.5 µL of the NMT1 enzyme working solution was added to the 384-well assay plate, followed by incubation at 25 °C for 10 minutes. Subsequently, 5 µL of the CPM and myristoyl-CoA working solution was added, the plate was centrifuged at 1000 rpm for 1 minute, and then 2.5 µL of the HSPP60 SRC working solution was added to initiate the reaction. The reaction was incubated at 25 °C for 45 minutes.
The IC50 curve of the compounds was fitted using the software XLfit 5.5.0 according to the nonlinear regression equation.

[2] = Plasma concentrations in mice following oral administration; conditions: ICR, mouse, po, 10 mg/kg
Text: (§1) This study evaluated the plasma concentrations of the compounds of the present invention in mice. ICR mice were procured from JOINN Laboratories (Suzhou) Co., Ltd. At the initiation of dosing, the animals were 6-8 weeks old and weighed 18-25 g. Mice were housed in transparent plastic cages (400 mm*240 mm*200 mm). The animal facility maintained a 12-hour light/12-hour dark cycle (lights on 07:00-19:00) using fluorescent lighting. The dark period may be intermittently interrupted as required for study-related activities. Ambient temperature and relative humidity were controlled within 20-26 °C and 40-70%, respectively. Animals were fed certified rodent chow and provided with drinking water filtered and sterilized through an ultrapure water system. All animals had ad libitum access to water throughout the study. Animals were fasted for at least 12 hours prior to dosing, and food was restored 4 hours post-dosing.
(§2) Prior to dosing, body weights were recorded, and healthy animals with similar weights were selected and randomly assigned to groups (n = 3 per group) based on body weight. The compounds were formulated in a 0.5% aqueous carboxymethyl cellulose (CMC) solution and administered orally at a single dose of 10 mg/kg. Blood samples (≥0.2 mL) were collected via venipuncture at 1 h and 4 h post-dose into EDTA-K2 anticoagulant tubes. Tubes were gently inverted to mix, immediately placed in an ice-water bath, and rapidly centrifuged at 4,000 rpm for 10 min at 4 °C to separate plasma. Plasma was stored at -70 °C until analysis.
(§3) Calibration curve and QC plasma samples: Working solutions for the calibration curve and QC samples were prepared using 80% methanol in water (Thermo Fisher) as the diluent. To prepare plasma calibration standards and QC samples, 5 µL of each working solution was added to 45 µL of blank plasma and mixed. To the prepared calibration and QC samples, 300 µL of internal standard solution (tolbutamide at 8 µg/mL in acetonitrile, Thermo Fisher) was added. […] The supernatant was collected and analyzed by liquid chromatography-tandem mass spectrometry (LC-MS/MS; AB Sciex API 5000).
(§4) Plasma sample pretreatment: After thawing at room temperature, 50 µL of each plasma sample was mixed with 300 µL of the internal standard solution (tolbutamide at 8 µg/mL in acetonitrile, Thermo Fisher). […] The supernatant was collected and analyzed by LC-MS/MS (AB Sciex API 5000).
(§5) Raw chromatograms, concentrations, and accuracy data were generated using Analyst software version 1.6.3.

[3] = tested on: MV-4-11 cells; test: Anti-proliferative activity against MV-4-11 cells (cell viability chemiluminescence); assay type: cell-based; conditions: MV4-11, 72 h, MV-4-11 human monocytic leukemia cells, three days of exposure
Protocol: This study utilized a cell proliferation assay to analyze the cytotoxicity of MV-4-11 human monocytic leukemia cells after three days of exposure to NMT1 inhibitors. The MV-4-11 cell line was purchased from Nanjing Cobuilder Biotechnology Co., Ltd., and cultured in IMDM medium (Viva cell) in an incubator (Thermo) at 37 °C with 5% CO2. In this experiment, NMT1 inhibitors were dissolved in DMSO to obtain 600 µM stock solutions. Dose-response solutions were prepared with a top endpoint compound concentration of 3 µM, followed by three-fold serial dilutions in DMSO, totaling eight data points. The final concentration of DMSO was 0.5%.
MV-4-11 cells were seeded into a white 96-well plate, 80 µL of cell suspension per well, containing 6000 MV-4-11 cells. The cell plate was placed in the CO2 incubator for overnight culture. Then, 20 µL of NMT1 inhibitor solutions at different concentrations were added to the wells. The 96-well plate was placed back into the incubator for three days. Another cell plate was prepared, and the signal was read on the day of drug addition to serve as the maximum value (Max value in the equation below) for data analysis. To this cell plate, 25 µL of cell viability chemiluminescence detection reagent was added per well, followed by incubation at room temperature for 10 minutes to stabilize the luminescence signal. A multi-label analyzer was used for reading.
The raw data were converted into inhibition rates using the equation (Sample - Min) / (Max - Min) * 100%. The IC50 values were then determined by fitting a four-parameter curve (using the "log(inhibitor) vs. response - Variable slope" model in GraphPad Prism). Min: wells treated with 0.5% DMSO; Max: Day 0 wells. Table 1 provides the inhibitory activity of the compounds of the invention on MV-4-11 cell proliferation. Table 1: Compound Inhibitory Activity against NMT1 Enzyme (IC50) and Anti-proliferative Activity against MV-4-11 Cell line (IC50)

[4] = mouse, in vivo, po, 10 mg/kg
Text: as §1, §2, §3, §4, §5

[5] = 6 nM NMT1 enzyme, 1.25 µM myristoyl-CoA, 20 µM HSPP60 SRC peptide, 45 minutes at 25 °C, read-out: NMT1 (IC50)

IC50 [1, 5]	concentration at 1 h [2]	concentration at 4 h [2]	concentration at 8 h [2]	IC50 [3]	SMILES	also measured
3.88 nM	3630 ± 990 ng/mL	2180 ± 185 ng/mL	504 ± 71 ng/mL	17.3 nM	Cc1c(NS(=O)(=O)c2ccc(-c3ccc4sc5c(c4c3)CCNC5)cc2)c(CCF)nn1C [Compound B52]	–
–	–	–	–	–	Cc1c(NS(=O)(=O)c2c(Cl)cc(N3CCc4sc5c(c4C3)CNCC5)cc2Cl)c(CC(F)(F)F)nn1C [Compound B35]	1 h Concentration [4]: 2267 ± 1084 ng/mL; 4 h Concentration [4]: 1270 ± 384 ng/mL; 8 h Concentration [4]: 684 ± 239 ng/mL; IC50 [1]: 1.97 nM; IC50 ([3]; Homo sapiens): 7.48 nM
4.08 nM	1660 ± 366 ng/mL	795 ± 127 ng/mL	260 ± 63 ng/mL	30.2 nM	Cc1c(NS(=O)(=O)c2ccc(-c3ccc4oc5c(c4c3)CNCC5)cc2)c(CC(F)F)nn1C [Compound B64]	–
2.87 nM	4630 ± 2020 ng/mL	3380 ± 575 ng/mL	2150 ± 206 ng/mL	11.4 nM	Cc1c(NS(=O)(=O)c2c(Cl)cc(-c3ccc4oc5c(c4c3)CNCC5)cc2Cl)c(CC2CC2)nn1C [Compound B26]	–
–	–	–	–	–	Cc1c(NS(=O)(=O)c2c(Cl)cc(-c3ccc4sc5c(c4c3)CNCC5)cc2Cl)c(CC2CC2)nn1C [Compound 21]	1 h Concentration [4]: 1900 ± 199 ng/mL; 4 h Concentration [4]: 1114 ± 196 ng/mL; 8 h Concentration [4]: 679 ± 220 ng/mL; IC50 [1]: 3.58 nM; IC50 ([3]; Homo sapiens): 26.9 nM
5.62 nM	5100 ± 2700 ng/mL	4080 ± 1970 ng/mL	3000 ± 1020 ng/mL	62.5 nM	Cc1c(NS(=O)(=O)c2c(Cl)cc(-c3ccc4sc5c(c4c3)CNCC5)cc2Cl)c(CC(F)(F)F)nn1C [Compound 17]	–
4.73 nM	3320 ± 1200 ng/mL	2310 ± 211 ng/mL	981 ± 343 ng/mL	38 nM	Cc1c(NS(=O)(=O)c2c(Cl)cc(-c3ccc4sc5c(c4c3)CCNC5)cc2Cl)c(CC(C)C)nn1C [Compound 54]	–
4.76 nM	9760 ± 410 ng/mL	8530 ± 1170 ng/mL	6730 ± 1450 ng/mL	40.1 nM	Cc1c(NS(=O)(=O)c2ccc(-c3ccc4oc5c(c4c3)CNCC5)cc2Cl)c(CC(F)(F)F)nn1C [Compound B39]	–
1.79 nM	3220 ± 650 ng/mL	1710 ± 224 ng/mL	1570 ± 104 ng/mL	3.42 nM	Cc1c(NS(=O)(=O)c2c(Cl)cc(-c3ccc4sc5c(c4c3)CNCC5)cc2Cl)c(CCF)nn1C [Compound B43]	–
4.85 nM	2490 ± 1200 ng/mL	1670 ± 467 ng/mL	1040 ± 157 ng/mL	37 nM	Cc1c(NS(=O)(=O)c2c(Cl)cc(-c3ccc4oc5c(c4c3)CNCC5)cc2Cl)c(CC#N)nn1C [Compound B18]	–
1.93 nM	1870 ± 389 ng/mL	846 ± 698 ng/mL	149 ± 114 ng/mL	5.3 nM	Cc1c(NS(=O)(=O)c2ccc(-c3ccc4sc5c(c4c3)CNCC5)cc2Cl)c(CC(F)F)nn1C [Compound B59]	–
4.02 nM	2480 ± 626 ng/mL	1020 ± 361 ng/mL	399 ± 264 ng/mL	27.2 nM	Cc1c(NS(=O)(=O)c2ccc(-c3ccc4oc5c(c4c3)CNCC5)cc2)c(CCF)nn1C [Compound B53]	–
1.89 nM	2960 ± 340 ng/mL	1400 ± 240 ng/mL	447 ± 71 ng/mL	3.26 nM	Cc1c(NS(=O)(=O)c2ccc(-c3ccc4sc5c(c4c3)CNCC5)cc2Cl)c(CCF)nn1C [Compound B48]	–
3.96 nM	–	–	–	18.8 nM	CCc1nn(C)c(C)c1NS(=O)(=O)c1c(Cl)cc(-c2ccc3oc4c(c3c2)CNCC4)cc1Cl [Compound 46]	–
3.35 nM	–	–	–	16.7 nM	Cc1c(NS(=O)(=O)c2c(Cl)cc(N3CCc4sc5c(c4C3)CNCC5)cc2Cl)c(CC(C)C)nn1C [Compound 63, 2,6-dichloro-4-(3,4,6,7,8,9-hexahydrothieno[3,2-c:4,5-c']dipyridine-2(1H)-yl)-N-(3-isobutyl-1,5-dimethyl-1H-pyrazol-4-yl)benzenesulfonamide]	–
2.08 nM	–	–	–	8.97 nM	Cc1c(NS(=O)(=O)c2c(Cl)cc(N3CCc4oc5c(c4C3)CCNC5)cc2Cl)c(CC(F)F)nn1C [Compound B58]	–
–	–	–	–	–	Cc1c(NS(=O)(=O)c2c(Cl)cc(-c3ccc4sc5c(c4c3)CCNC5)cc2Cl)c(CC2CC2)nn1C [Compound B25]	IC50 ([1]; read-out: NMT1 (IC50), 6 nM NMT1 enzyme, 1.25 µM myristoyl-CoA, 20 µM HSPP60 SRC peptide, 45 minutes at 25 °C): 2.62 nM; IC50 ([3]; Homo sapiens): 10.4 nM
2.98 nM	–	–	–	17.8 nM	CCc1nn(C)c(C)c1NS(=O)(=O)c1ccc(-c2ccc3oc4c(c3c2)CNCC4)cc1 [Compound B12]	–
3.46 nM	–	–	–	15.2 nM	CCc1nn(C)c(C)c1NS(=O)(=O)c1c(Cl)cc(N2CCn3nc4c(c3C2)CNCC4)cc1Cl [Compound 70]	–
2.03 nM	–	–	–	3.61 nM	Cc1c(NS(=O)(=O)c2c(Cl)cc(N3CCc4sc5c(c4C3)CNCC5)cc2Cl)c(CCF)nn1C [Compound B46]	–
–	–	–	–	–	Cc1c(NS(=O)(=O)c2ccc(-c3ccc4sc5c(c4c3)CNCC5)cc2)c(CC(F)(F)F)nn1C [Compound B40]	IC50 [1]: 2.7 nM; IC50 ([3]; Homo sapiens): 11.3 nM
3.44 nM	1820 ± 493 ng/mL	1350 ± 15 ng/mL	723 ± 363 ng/mL	11.1 nM	Cc1nn(C)c(C)c1NS(=O)(=O)c1c(Cl)cc(-c2ccc3sc4c(c3c2)CNCC4)cc1Cl [Compound 1, 2,6-dichloro-4-(1,2,3,4-tetrahydrobenzo[4,5]thieno[3,2-c]pyridin-8-yl)-N-(1,3,5-trimethyl-1H-pyrazol-4-yl)benzenesulfonamide]	–
1.94 nM	5040 ± 1820 ng/mL	3800 ± 621 ng/mL	3730 ± 1280 ng/mL	9.51 nM	Cc1c(NS(=O)(=O)c2c(Cl)cc(-c3ccc4oc5c(c4c3)CNCC5)cc2Cl)c(CCF)nn1C [Compound B45]	–
3.07 nM	–	–	–	21.7 nM	Cc1c(NS(=O)(=O)c2ccc(-c3ccc4sc5c(c4c3)CNCC5)cc2Cl)c(CC#N)nn1C [Compound B19]	–
3.6 nM	–	–	–	17.4 nM	Cc1c(NS(=O)(=O)c2ccc(-c3ccc4oc5c(c4c3)CNCC5)cc2Cl)c(CC2CC2)nn1C [Compound B29]	–
3.49 nM	–	–	–	19.6 nM	Cc1c(NS(=O)(=O)c2c(Cl)cc(-c3ccc4oc5c(c4c3)CNCC5)cc2Cl)c(CC(F)F)nn1C [Compound B56]	–

— patent EP4810492A1, “NMT INHIBITOR, PREPARATION METHOD THEREFOR, AND USE THEREOF” (Nanjing Synnocare Pharmaceutical Technology Co., Ltd., priority 2023, dated 2025)
